# Results from PMC11118832 (Biomolecules, 2024).
# Square brackets hold non-standard residues; d marks the D form. Ends that are not written are not given here. Peptide text beside a SMILES is read from it. 1Nal = N[C@@H](Cc1cccc2ccccc12)C(=O)O; Lys(Me) = CNCCCC[C@H](N)C(=O)O; hLeu = CC(C)CC[C@H](N)C(=O)O; Nle = CCCC[C@H](N)C(=O)O; Orn = NCCC[C@H](N)C(=O)O
# Test system: not given
# Test: not given
# Settings: pH 6.4
row,Compound,Solubility / precipitation in NMR buffer
1,Ac-LVIVGAAWDYKY-NH2 [B2.22],too hydrophobic and precipitated totally out of the solution

# Target: T1, PD-1/PD-L1 (Homo sapiens, UniProt Q15116)
# T1 construct: this kit uses ectodomains of PD-1 and PD-L1 that are expressed with orthogonal fusion tags (Tag-1 and Tag-2); purchased CisBio (currently Perkin-Elmer, Bedford, MA)
# Test: In vitro time-resolved FRET PD-1/PD-L1 binding assay (CisBio kit)
# Settings: CisBio PD-1/PD-L1 binding kit, TR FRET, 96-well, 4-fold serial dilutions in triplicate, freshly dissolved peptides; read-out: IC50, inhibition of PD-1/PD-L1 binding (TR FRET assay)
# Procedure: Commercial PD-1/PD-L1 binding assay kit (CisBio, currently Perkin-Elmer, Bedford, MA) for time resolve fluorescent energy transfer (FRET) was used to assess peptides binding to PD-1. The assay for peptide screening was performed in a 96-well format (normal pressure), starting with 4-fold serial dilutions of each peptide in triplicate. No-peptide triplicate wells were used to assess fluorescent energy transfer in the absence of inhibition, and no-PD-1/PD-L1 triplicate wells were used to assess the background fluorescent energy transfer in the absence of PD-1/PD-L1 complexes. More detailed concentration dependences were obtained for selected peptides. Only freshly dissolved peptides were used in the assay. Various QSAR (quantitative structure activity relationship) hypotheses were tested by synthesizing batches of 10–12 peptides. In total, over one hundred candidates in ten iterations were screened for their ability to inhibit in vitro PD-1/PD-L1 binding using the commercial PD-1/PD-L1 binding assay kit (CisBio, currently Perkin-Elmer). Briefly, this kit uses ectodomains of PD-1 and PD-L1 that are expressed with orthogonal fusion tags (Tag-1 and Tag-2). It also includes two antibodies to selectively interact with these tags. The antibody against one tag is labeled with fluorescent moiety, which serves as a donor, while the other antibody is labeled with fluorescent moiety, which serves as an acceptor in fluorescent resonance energy transfer (FRET). When the complex is formed and probed with both anti-Tag-1 and anti-Tag-2 antibodies, donor and acceptor are sufficiently close, and FRET can be detected in a time-resolved (TR) manner. Inhibitors of PD-1/PD-L1 interactions prevent complex formation, leading to a decrease in TR FRET in a concentration-dependent manner, as shown in Figure 2 for four representative peptide inhibitors. Initial fourfold dilutions are exemplified by data for peptides B5.11 and B5.6 (panels A and B); examples of the more detailed follow-up concentration dependences are shown for peptides B2.4 and B2.22 (panels C and D). The potency of the inhibitors is then characterized by IC50, a concentration that inhibits TR FRET by 50%, allowing for a facile comparison of different inhibitors (Figure 2E).
row,IC50,Compound
1,0.7 µM,Ac-LVIVGAAWDYKY-NH2 [B2.22]
2,0.05 µM,Ac-DVIDGAAWDYKY-NH2 [B5.11]
3,0.13 µM,Ac-DVIVGAAWDYKY-NH2 [B3.15]
4,0.2 µM,CCCC[C@H](NC(C)=O)C(=O)N[C@H](C(=O)N[C@@H](CC(C)C)C(=O)N[C@H](C(=O)N[C@H](C(=O)N[C@H](C(=O)NCC(=O)N[C@@H](C)C(=O)N[C@@H](C)C(=O)N[C@@H](Cc1c[nH]c2ccccc12)C(=O)N[C@@H](CC(=O)O)C(=O)N[C@@H](Cc1ccc(O)cc1)C(=O)N[C@@H](CCCCN)C(=O)N[C@@H](Cc1ccc(O)cc1)C(N)=O)C(C)C)[C@@H](C)CC)C(C)C)C(C)C [B5.6] (Ac-[Nle]VLVIVGAAWDYKY-NH2)

# Same assay, conditions: CisBio PD-1/PD-L1 binding kit, TR FRET, 96-well, serial dilutions in triplicate; NI = no inhibition at maximum concentration tested (* 5 μM, ** 50 μM); read-out: EC50 (Supplementary Table S1; inhibition of PD-1/PD-L1 binding by in vitro TR-FRET assay)
row,Compound,EC50
1,CCCC[C@H](NC(C)=O)C(=O)N[C@H](C(=O)N[C@H](C(=O)N[C@H](C(=O)NCC(=O)N[C@@H](C)C(=O)N[C@@H](C)C(=O)N[C@@H](Cc1c[nH]c2ccccc12)C(=O)N[C@@H](CC(=O)O)C(=O)N[C@@H](Cc1ccc(O)cc1)C(=O)N[C@@H](CCCCN)C(=O)N[C@@H](Cc1ccc(O)cc1)C(N)=O)C(C)C)[C@@H](C)CC)C(C)C [B4.1] (Ac-[Nle]VIVGAAWDYKY-NH2),> 5 µM
2,CC(=O)N[C@H](CC(=O)O)C(=O)N[C@@H](C)C(=O)N[C@@H](Cc1c[nH]c2ccccc12)C(=O)N[C@@H](CC(=O)O)C(=O)N[C@@H](Cc1ccc(O)cc1)C(=O)N[C@@H](CCCCN)C(=O)N[C@@H](Cc1ccc(O)cc1)C(N)=O [B9.3] (Ac-[dD]AWDYKY-NH2),> 5 µM
3,CC(=O)N[C@@H](CCC(C)C)C(=O)N[C@H](C(=O)N[C@@H](CCC(C)C)C(=O)N[C@H](C(=O)NCC(=O)N[C@@H](C)C(=O)N[C@@H](C)C(=O)N[C@@H](Cc1c[nH]c2ccccc12)C(=O)N[C@@H](CC(=O)O)C(=O)N[C@@H](CCCNC(=N)N)C(=O)N[C@@H](CCCCN)C(=O)N[C@@H](Cc1ccc(O)cc1)C(N)=O)C(C)C)C(C)C [B3.20] (Ac-[hLeu]V[hLeu]VGAAWDRKY-NH2),> 5 µM
4,Ac-DVIDGAAWDYKYLT-NH2 [B7.9],> 5 µM
5,Ac-WVWVGAAWDYKY-NH2 [B3.8],> 50 µM
6,Ac-IVGAAWDYKY-NH2 [B3.1],> 50 µM
7,Ac-DAAWDYKY-NH2 [B9.1],> 5 µM
8,Ac-LVIVGAAWDRKY-NH2 [B3.17],> 50 µM
9,CC(=O)N[C@@H](CCC(C)C)C(=O)N[C@H](C(=O)N[C@@H](Cc1c[nH]c2ccccc12)C(=O)N[C@H](C(=O)NCC(=O)N[C@@H](C)C(=O)N[C@@H](CCCN)C(=O)N[C@@H](Cc1c[nH]c2ccccc12)C(=O)N[C@@H](CC(=O)O)C(=O)N[C@@H](CCCNC(=N)N)C(=O)N[C@@H](CCCCN)C(=O)N[C@@H](Cc1ccc(O)cc1)C(N)=O)C(C)C)C(C)C [B3.23] (Ac-[hLeu]VWVGA[Orn]WDRKY-NH2),> 5 µM
10,Ac-EVIVGAAWDYKY-NH2 [B5.12],> 5 µM
11,Ac-DVIDGADWDYKY-NH2 [B8.20],> 5 µM
12,CC[C@H](C)[C@H](NC(=O)[C@@H](NC(=O)[C@H](CC(=O)O)NC(C)=O)C(C)C)C(=O)N[C@H](C(=O)NCC(=O)N[C@@H](C)C(=O)N[C@@H](C)C(=O)N[C@@H](Cc1c[nH]c2ccccc12)C(=O)N[C@@H](CC(=O)O)C(=O)N[C@@H](CCCCNC)C(=O)N[C@@H](CCCCN)C(=O)N[C@@H](Cc1ccc(O)cc1)C(N)=O)C(C)C [B6.3] (Ac-DVIVGAAWD[Lys(Me)]KY-NH2),> 5 µM
13,Ac-DVINGAAWDYKY-NH2 [B8.4],> 5 µM
14,Ac-DVIDPAAWDYKY-NH2 [B8.12],> 5 µM
15,Ac-EAWDYKY-NH2 [B9.4],> 5 µM
16,Ac-DVIYGAAWDYKY-NH2 [B7.10],> 5 µM
17,Ac-LEIKGAEWDYKY-NH2 [B3.18],> 50 µM
18,Ac-EGAAWDYKY-NH2 [B9.6],> 50 µM
19,CCCC[C@H](NC(C)=O)C(=O)N[C@H](C(=O)N[C@@H](Cc1c[nH]c2ccccc12)C(=O)N[C@H](C(=O)NCC(=O)N[C@@H](C)C(=O)N[C@@H](C)C(=O)N[C@@H](Cc1c[nH]c2ccccc12)C(=O)N[C@@H](CC(=O)O)C(=O)N[C@@H](Cc1ccc(O)cc1)C(=O)N[C@@H](CCCCN)C(=O)N[C@@H](Cc1ccc(O)cc1)C(N)=O)C(C)C)C(C)C [B4.11] (Ac-[Nle]VWVGAAWDYKY-NH2),> 5 µM
20,CCCC[C@H](NC(=O)[C@@H](NC(=O)[C@@H](N)CCCNC(=N)N)C(C)C)C(=O)N[C@H](C(=O)N[C@@H](Cc1c[nH]c2ccccc12)C(=O)N[C@H](C(=O)NCC(=O)N[C@@H](C)C(=O)N[C@@H](C)C(=O)N[C@@H](Cc1c[nH]c2ccccc12)C(=O)N[C@@H](CC(=O)O)C(=O)N[C@@H](Cc1ccc(O)cc1)C(=O)N[C@@H](CCCCN)C(=O)N[C@@H](Cc1ccc(O)cc1)C(=O)O)C(C)C)C(C)C [B4.4] (H-RV[Nle]VWVGAAWDYKY-OH; N-terminus and C-terminus assumed),> 5 µM
21,Ac-DGAAWDYKY-NH2 [B9.0],> 5 µM
22,Ac-AWDYKY-NH2 [B2.19],> 50 µM
23,Ac-DLIDGAAWDYKY-NH2 [B8.15],> 5 µM
24,CC[C@H](C)[C@H](NC(=O)[C@@H](NC(=O)[C@H](CC(=O)O)NC(C)=O)C(C)C)C(=O)N[C@H](C(=O)NCC(=O)N[C@@H](C)C(=O)N[C@@H](C)C(=O)N[C@@H](Cc1cccc2ccccc12)C(=O)N[C@@H](CC(=O)O)C(=O)N[C@@H](Cc1ccc(O)cc1)C(=O)N[C@@H](CCCCN)C(=O)N[C@@H](Cc1ccc(O)cc1)C(N)=O)C(C)C [B6.1] (Ac-DVIVGAA[1Nal]DYKY-NH2),> 5 µM

# Continued, values first:
row,EC50,Compound
1,0.7 µM,Ac-LVIVGAAWDYKY-NH2 [B2.22]
2,11 µM,CCCC[C@H](NC(C)=O)C(=O)N[C@H](C(=O)N[C@@H](CC(C)C)C(=O)N[C@H](C(=O)N[C@H](C(=O)N[C@H](C(=O)NCC(=O)N[C@@H](C)C(=O)N[C@@H](C)C(=O)N[C@@H](Cc1c[nH]c2ccccc12)C(=O)N[C@@H](CC(=O)O)C(=O)N[C@@H](Cc1ccc(O)cc1)C(=O)N[C@@H](CCCCN)C(=O)N[C@@H](CCCNC(=N)N)C(N)=O)C(C)C)[C@@H](C)CC)C(C)C)C(C)C [B2.5] (Ac-[Nle]VLVIVGAAWDYKR-NH2)
3,> 5 µM,Ac-DVIYGAAWDYKYLT-NH2 [B7.11]
4,> 5 µM,Ac-NVIVGAAWDYKY-NH2 [B7.7]
5,> 5 µM,Ac-DVIVGAAWDYKYLT-NH2 [B7.1]
6,> 5 µM,CCCC[C@H](NC(C)=O)C(=O)N[C@H](C(=O)N[C@@H](Cc1c[nH]c2ccccc12)C(=O)N[C@H](C(=O)NCC(=O)N[C@@H](C)C(=O)N[C@@H](C)C(=O)N[C@@H](Cc1c[nH]c2ccccc12)C(=O)N[C@@H](CC(=O)O)C(=O)N[C@@H](CCCNC(=N)N)C(=O)N[C@@H](CCCCN)C(=O)N[C@@H](Cc1ccc(O)cc1)C(N)=O)C(C)C)C(C)C [B4.12] (Ac-[Nle]VWVGAAWDRKY-NH2)
7,> 5 µM,Ac-DWIVGAAWDYKY-NH2 [B5.13]
8,> 5 µM,CC[C@H](C)[C@H](NC(=O)[C@@H](NC(=O)[C@H](CC(C)C)NC(C)=O)C(C)C)C(=O)N[C@H](C(=O)NCC(=O)N[C@@H](C)C(=O)N[C@@H](CCCN)C(=O)N[C@@H](Cc1c[nH]c2ccccc12)C(=O)N[C@@H](CC(=O)O)C(=O)N[C@@H](Cc1ccc(O)cc1)C(=O)N[C@@H](CCCCN)C(=O)N[C@@H](Cc1ccc(O)cc1)C(N)=O)C(C)C [B3.22] (Ac-LVIVGA[Orn]WDYKY-NH2)
9,> 5 µM,CCCC[C@H](N)C(=O)N[C@H](C(=O)N[C@@H](Cc1c[nH]c2ccccc12)C(=O)N[C@H](C(=O)NCC(=O)N[C@@H](C)C(=O)N[C@@H](C)C(=O)N[C@@H](Cc1c[nH]c2ccccc12)C(=O)N[C@@H](CC(=O)O)C(=O)N[C@@H](Cc1ccc(O)cc1)C(=O)N[C@@H](CCCCN)C(=O)N[C@@H](Cc1ccc(O)cc1)C(=O)O)C(C)C)C(C)C [B4.15] (H-[Nle]VWVGAAWDYKY-OH; N-terminus and C-terminus assumed)
10,35 µM,CC(=O)N[C@@H](CCC(C)C)C(=O)N[C@H](C(=O)N[C@@H](CCC(C)C)C(=O)N[C@H](C(=O)NCC(=O)N[C@@H](C)C(=O)N[C@@H](C)C(=O)N[C@@H](Cc1c[nH]c2ccccc12)C(=O)N[C@@H](CC(=O)O)C(=O)N[C@@H](Cc1ccc(O)cc1)C(=O)N[C@@H](CCCCN)C(=O)N[C@@H](Cc1ccc(O)cc1)C(N)=O)C(C)C)C(C)C [B3.3] (Ac-[hLeu]V[hLeu]VGAAWDYKY-NH2)
11,0.05 µM,Ac-DVIDGAAWDYKY-NH2 [B5.11]
12,1 µM,Ac-RVLVWVGAAWDYKY-NH2 [B2.18]
13,8.5 µM,Ac-LVIVGPAWDYKY-NH2 [B3.9]
14,12.7 µM,Ac-RVFVFVGAAWDYKY-NH2 [B2.21]
15,0.13 µM,Ac-DVIVGAAWDYKY-NH2 [B3.15]
16,10 µM,KRVLVIVGAAWDYKYE [B2.35]
17,0.2 µM,CCCC[C@H](NC(C)=O)C(=O)N[C@H](C(=O)N[C@@H](CC(C)C)C(=O)N[C@H](C(=O)N[C@H](C(=O)N[C@H](C(=O)NCC(=O)N[C@@H](C)C(=O)N[C@@H](C)C(=O)N[C@@H](Cc1c[nH]c2ccccc12)C(=O)N[C@@H](CC(=O)O)C(=O)N[C@@H](Cc1ccc(O)cc1)C(=O)N[C@@H](CCCCN)C(=O)N[C@@H](Cc1ccc(O)cc1)C(N)=O)C(C)C)[C@@H](C)CC)C(C)C)C(C)C [B5.6] (Ac-[Nle]VLVIVGAAWDYKY-NH2)
18,35 µM,Ac-RVLVIVGAALDYKY-NH2 [B2.30]
